Results published in ChEMBL document CHEMBL5518215, “Unlocking Antibacterial Potential: Key-Site-Based Regulation of Antibacterial Spectrum of Peptides” (J Med Chem, 2024).
Calls of active or inactive are those of the source. No cut-off for these calls is given here.

How the values were obtained:
[1] = test system: Staphylococcus aureus; test: Antimicrobial activity against Staphylococcus aureus 29213 assessed as absence bacterial growth measured after 18 to 24 hrs incubation by NCCLS method; assay type: functional; conditions: time 18-24 hrs
[2] = test system: Pseudomonas aeruginosa; test: Antimicrobial activity against Pseudomonas aeruginosa 27853 assessed as bacterial killing measured after 16 hrs incubation; assay type: functional
[3] = test system: Staphylococcus aureus; test: Induction of morphological changes in Staphylococcus aureus 29213 assessed as cavity between cell wall and cytoplasmic membrane by using transmission electron microscopy; assay type: functional, organism-based
[4] = test system: Acinetobacter baumannii; test: Antimicrobial activity against Acinetobacter baumannii 1.6769 assessed as absence bacterial growth measured after 18 to 24 hrs incubation by NCCLS method; assay type: functional; conditions: time 18-24 hrs
[5] = test system: Staphylococcus aureus; test: Outer membrane permeabilization/cell wall in Staphylococcus aureus 29213 assessed as fluorescence intensity of NPN measured at 2 to 128 uM after 1 hr by spectrophotometry; assay type: functional, organism-based; conditions: dose 2-128 µM
[6] = test system: Escherichia coli; test: Antimicrobial activity against Escherichia coli 25922 assessed as absence bacterial growth measured after 18 to 24 hrs incubation in presence of NaCl by NCCLS method; assay type: functional; conditions: time 18-24 hrs
[7] = Cytotoxicity against mouse RAW264.7 cells assessed as cell survival rate at 32 to 64 uM measured after 8 hrs by MTT assay relative to control; assay type: toxicity, cell-based; conditions: dose 32-64 µM, read-out: Activity
[8] = test system: Escherichia coli; test: Induction of morphological changes in Escherichia coli 25922 assessed as membrane damage and cytoplasmic leakage by using transmission electron microscopy; assay type: functional, organism-based
[9] = test system: Staphylococcus aureus; test: Induction of morphological changes in Staphylococcus aureus 29213 assessed as changes in cell surface by measuring signs of disruption by using scanning electron microscopy; assay type: functional, organism-based
[10] = test system: Erythrocyte; test: Hemolytic activity in human RBC at effective concentration measured after 1 hr by microplate reader analysis; assay type: toxicity, cell-based
[11] = test system: Lipoteichoic acid; test: Binding affinity to Staphylococcus aureus LTA assessed as fluorescence intensity measured after 1 hr by spectrophotometry; conditions: dose 1-64 µM
[12] = Antimicrobial activity against Salmonella pullorum C7913 assessed as bacterial killing measured after 16 hrs incubation; assay type: functional, Salmonella enterica subsp. enterica serovar Pullorum; conditions: Salmonella enterica
[13] = test system: Escherichia coli; test: Antibacterial activity against Escherichia coli 25922 assessed as bactericidal rate by measuring reduction in bacterial count at 1 times MBC concentration measured at 15 secs by time-kill kinetic assay; assay type: functional; conditions: time 15 sec; 15 s
[14] = test system: Acinetobacter baumannii; test: Antimicrobial activity against Acinetobacter baumannii 1.6769 assessed as bacterial killing measured after 16 hrs incubation; assay type: functional
[15] = test system: Escherichia coli; test: Antimicrobial activity against Escherichia coli 25922 assessed as absence bacterial growth measured after 18 to 24 hrs incubation in presence of MgCl2 by NCCLS method; assay type: functional; conditions: time 18-24 hrs
[16] = test system: Escherichia coli; test: Antibacterial activity against Escherichia coli 25922 assessed as absence bacterial growth measured after 18 to 24 hrs incubation at pH 8 by NCCLS method; assay type: functional; conditions: time 18-24 hrs
[17] = test system: Escherichia coli; test: Antimicrobial activity against Escherichia coli 25922 assessed as absence bacterial growth measured after 18 to 24 hrs incubation in presence of FeCl3 by NCCLS method; assay type: functional; conditions: time 18-24 hrs
[18] = test system: Cell membrane; test: Induction of cytoplasmic membrane disruption in Staphylococcus aureus 29213 assessed as increase in fluorescence intensity at 2 to 64 uM by DiSC3-5 probe based assay; assay type: cell membranes; conditions: dose 2-64 µM, time <= 30.0 min, TDE = time-dependent effect
[19] = test system: Salmonella typhimurium; test: Antimicrobial activity against Salmonella typhimurium 14028 assessed as bacterial killing measured after 16 hrs incubation; assay type: functional, Salmonella enterica subsp. enterica serovar Typhimurium; conditions: Salmonella enterica
[20] = test system: Escherichia coli; test: Antimicrobial activity against Escherichia coli K88 assessed as bacterial killing measured after 16 hrs incubation; assay type: functional
[21] = test system: Escherichia coli; test: Antibacterial activity against Escherichia coli 25922 assessed as absence bacterial growth measured after 12 hrs treated with H2O2; assay type: functional
[22] = test system: DNA; test: Binding affinity to DNA in Staphylococcus aureus 29213 incubated for 1 hr by electrophoresis; assay type: nucleic-acid assay
[23] = test system: Staphylococcus aureus; test: Antimicrobial activity against Methicillin-resistant Staphylococcus aureus 43300 assessed as absence bacterial growth measured after 18 to 24 hrs incubation by NCCLS method; assay type: functional; conditions: time 18-24 hrs
[24] = Cytotoxicity against human HEK-293T cells assessed as cell survival rate at 64 uM measured after 8 hrs by MTT assay relative to control; assay type: toxicity, cell-based; conditions: read-out: Activity
[25] = test system: Salmonella typhimurium; test: Antimicrobial activity against Salmonella typhimurium 14028 assessed as absence bacterial growth measured after 18 to 24 hrs incubation by NCCLS method; assay type: functional, Salmonella enterica subsp. enterica serovar Typhimurium; conditions: Salmonella enterica, time 18-24 hrs
[26] = test system: Listeria monocytogenes; test: Antimicrobial activity against Listeria monocytogenes 1.10753 assessed as bacterial killing measured after 16 hrs incubation; assay type: functional
[27] = test system: Lipopolysaccharide (LPS); test: Binding affinity to Escherichia coli O111:B4 LPS assessed as fluorescence intensity measured after 1 hr by spectrophotometry; assay type: subcellular; conditions: dose 2-16 µM
[28] = test system: Staphylococcus epidermidis; test: Antimicrobial activity against Staphylococcus epidermidis 12228 assessed as absence bacterial growth measured after 18 to 24 hrs incubation by NCCLS method; assay type: functional; conditions: time 18-24 hrs
[29] = test system: Listeria monocytogenes; test: Antimicrobial activity against Listeria monocytogenes 1.10753 assessed as absence bacterial growth measured after 18 to 24 hrs incubation by NCCLS method; assay type: functional; conditions: time 18-24 hrs
[30] = test system: Escherichia coli; test: Antimicrobial activity against Escherichia coli 25922 assessed as absence bacterial growth measured after 18 to 24 hrs incubation in presence of 25% serum by NCCLS method; assay type: functional; conditions: time 18-24 hrs
[31] = test system: Escherichia coli; test: Antimicrobial activity against Escherichia coli 25922 assessed as absence bacterial growth measured after 18 to 24 hrs incubation in presence of 50% serum by NCCLS method; assay type: functional; conditions: time 18-24 hrs
[32] = test system: Escherichia coli; test: Antimicrobial activity against Escherichia coli K88 assessed as absence bacterial growth measured after 18 to 24 hrs incubation by NCCLS method; assay type: functional; conditions: time 18-24 hrs
[33] = test system: Staphylococcus aureus; test: Antimicrobial activity against Staphylococcus aureus 25923 assessed as bacterial killing measured after 16 hrs incubation; assay type: functional
[34] = test system: Staphylococcus aureus; test: Antimicrobial activity against Staphylococcus aureus 29213 assessed as absence bacterial growth measured after 18 to 24 hrs incubation by NCCLS m; assay type: functional; conditions: time 18-24 hrs
[35] = test system: Escherichia coli; test: Induction of morphological changes in Escherichia coli 25922 assessed as changes in cell surface by measuring signs of disruption by using scanning electron microscopy; assay type: functional, organism-based
[36] = test system: Escherichia coli; test: Induction of ROS production in mid-log phase Escherichia coli 25922 assessed as fluorescence intensity at 1 to 64 uM by DCFH-DA assay; assay type: functional, organism-based; conditions: dose 1-64 µM
[37] = test system: Staphylococcus aureus; test: Antimicrobial activity against Staphylococcus aureus 29213 assessed as bacterial killing measured after 16 hrs incubation; assay type: functional
[38] = test system: Staphylococcus aureus; test: Antibacterial activity against Staphylococcus aureus 29213 assessed as bactericidal rate by measuring reduction in bacterial count at 1 times MBC concentration measured at 15 secs by time-kill kinetic assay; assay type: functional; conditions: time 15 sec; 15 s
[39] = test system: DNA; test: Binding affinity to DNA in Escherichia coli 25922 incubated for 1 hr by electrophoresis; assay type: nucleic-acid assay
[40] = test system: Staphylococcus aureus; test: Effect on inner membrane fluidity in Staphylococcus aureus 29213 assessed as reduction in intracellular membrane fluidity by measuring fluorescence intensity of Laurdan-GP after 60 mins by spectrophotometry; assay type: functional, organism-based
[41] = test system: Escherichia coli; test: Antibacterial activity against Escherichia coli 25922 assessed as absence bacterial growth measured after 18 to 24 hrs incubation at pH 6 by NCCLS method; assay type: functional; conditions: time 18-24 hrs
[42] = test system: Escherichia coli; test: Antimicrobial activity against Escherichia coli 25922 assessed as bacterial killing measured after 16 hrs incubation; assay type: functional

H-GKLWLKAGKLWLKGGKLWLKG-NH2
MIC [1]: 4 µM
MBC [2]: 8 µM
Activity [3]: Active
MIC [4]: 2 µM
permeability [5]: Permeable
MIC [6]: 16 µM
viability at 8 h, up to 64 µM [7]: 60%
Activity [8]: Active
Activity [9]: Active
HC10 [10]: > 128 µM
Activity [11]: Dose-Dependent Effect
MBC [12]: 1 µM
inhibition (INH) [13]: 99.99%
MBC [14]: 2 µM
MIC [15]: 8 µM
MIC [16]: 2 µM
MIC [17]: 2 µM
Activity [18]: Tde
MBC [19]: 16 µM
MBC [20]: 0.5 µM
MIC [21]: 4 µM
Activity [22]: Active
MIC [23]: 4 µM
viability at 8 h, 64 µM [24]: > 80%
MIC [25]: 2 µM
MBC [26]: > 32 µM
Activity [27]: Dose-Dependent Effect
MIC [28]: 4 µM
MIC [29]: > 32 µM
MIC [30]: 32 µM
MIC [31]: > 32 µM
MIC [32]: 0.5 µM
MBC [33]: 4 µM
MIC [34]: 4 µM
Activity [35]: Active
Activity [36]: Active
MBC [37]: 8 µM
inhibition (INH) [38]: 99.99%
Activity [39]: Active
Activity [40]: Active
MIC [41]: 2 µM
MBC [42]: 2 µM
